According to US20050148631A1, “Amino heterocyclyl inhibitors of 11-beta-hydroxy steroid dehydrogenase type 1” (AGOURON PHARMACEUTICALS, INC., priority 2003, published 2005):
Like-named read-outs stand apart in the source and are kept apart here.

Legend:
11β-hsd-1 enzyme [1] = target: T1, 11β-hsd-1 enzyme (Homo sapiens, UniProt P28845); experiment: 11β-hsd-1 enzyme assay, Kiapp determination (3H-cortisone to cortisol, radio-HPLC); type: biochemical; settings: read-out: Ki app
11β-hsd-1 enzyme [2] = target: T1, 11β-hsd-1 enzyme; experiment: 11β-hsd-1 enzyme assay, percentage of inhibition (3H-cortisone to cortisol, radio-HPLC); type: biochemical; settings: for inhibition at 0.1 µM: read-out: % inh @ 0.1 uM

T1 sequence (P28845 whole entry, species assumed): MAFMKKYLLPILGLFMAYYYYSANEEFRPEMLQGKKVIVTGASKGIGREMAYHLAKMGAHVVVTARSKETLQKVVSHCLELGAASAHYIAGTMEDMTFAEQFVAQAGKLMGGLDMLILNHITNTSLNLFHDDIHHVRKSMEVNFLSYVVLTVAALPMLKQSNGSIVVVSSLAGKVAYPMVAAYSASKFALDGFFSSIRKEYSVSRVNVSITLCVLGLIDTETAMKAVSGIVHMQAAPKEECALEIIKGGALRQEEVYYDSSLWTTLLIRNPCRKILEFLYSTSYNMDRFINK

Row | SMILES | Ki (11β-hsd-1 enzyme [1]) [nM] | inhibition at 0.1 µM (11β-hsd-1 enzyme [2]; 0.1 uM) [%] | Ki (11β-hsd-1 enzyme [1]; apparent Ki, 11β-hsd-1 enzyme) [nM] | inhibition at 0.1 µM (11β-hsd-1 enzyme [2]; compound at 0.1 uM) [%] | % inh @ 0.1 uM (11β-hsd-1 enzyme [2]; 0.1 uM) [%]
1 | Cc1c(S(=O)(=O)Nc2cccc(N)n2)sc2ccc(Cl)cc12 [Example 107] | < 1 | 100 |  |  | 
2 | Cc1cccc(NS(=O)(=O)c2cc3ccccc3s2)n1 [Example 72] | 30.9 | 74.6 |  |  | 
3 | Cc1cccc(NS(=O)(=O)c2ccc(-c3ccc(S(C)(=O)=O)cc3)cc2C)n1 [Example 200] |  |  | 21 | 88 | 
4 | Cc1cccc(NS(=O)(=O)c2ccc(-c3ccccc3)cc2C)n1 [Example 166] | 12 | 95 |  |  | 
5 | Cc1cccc(NS(=O)(=O)N2CCC(c3ccc(F)cc3)CC2)n1 [Example 301] |  |  | 4.9 | 100 | 
6 | COc1ccc(NS(=O)(=O)c2sc3ccc(Cl)cc3c2C)nn1 [Example 68] | 8.3 | 100 |  |  | 
7 | CCOC(=O)Cc1cccc(NS(=O)(=O)c2sc3ccc(Cl)cc3c2C)n1 [Example 6] | 2.8 | 100 |  |  | 
8 | Cc1cccc(NS(=O)(=O)c2ccc(-c3ccccc3O)cc2C)n1 [Example 181] | 53 | 83 |  |  | 
9 | N#Cc1ccc(-c2ccc(S(=O)(=O)Nc3cccc(C4CC4)n3)cn2)cc1 [Example 293, 6-(4-Cyano-phenyl)-pyridine-3-sulfonic acid (6-cyclopropyl-pyridin-2-yl)-amide] |  |  | 6.4 | 100 | 
10 | Cc1cccc(NS(=O)(=O)c2ccc(-c3ccc(F)c(Cl)c3)cc2C)n1 [Example 170] | 8.1 | 93 |  |  | 
11 | Cc1cccc(NS(=O)(=O)c2ccc(-c3cccc(Cl)c3Cl)cc2C)n1 [Example 196] | 7.1 | 90 |  |  | 
12 | Cc1cccc(NS(=O)(=O)c2ccc(-c3cccc(C#N)c3)cc2C)n1 [Example 177] | 20 | 85 |  |  | 
13 | Cc1cccc(NS(=O)(=O)c2sc3ccc(C#N)cc3c2C)n1 [Example 295, 5-Cyano-3-methyl-benzo[b]thiophene-2-sulfonic acid (6-methyl-pyridin-2-yl)-amide] |  |  | 2.3 | 100 | 
14 | COc1cc(S(=O)(=O)Nc2cccc(C)n2)ccc1-c1ccc(C#N)cc1 [Example 258] |  |  | 5.9 | 100 | 
15 | Cc1cccc(NS(=O)(=O)c2ccc(-c3ccc4c(c3)CCO4)cc2C)n1 [Example 211] |  |  | 23 | 81 | 
16 | Cc1cccc(NS(=O)(=O)c2ccc(-c3cc(F)c(F)c(F)c3)cc2C)n1 [Example 184] | 12 | 97 |  |  | 
17 | COc1ccc(-c2ccc(S(=O)(=O)Nc3cccc(C)n3)c(C)c2)cc1C [Example 205] |  |  | 19 | 86 | 

Row | SMILES | Ki (11β-hsd-1 enzyme [1]) [nM] | inhibition at 0.1 µM (11β-hsd-1 enzyme [2]; 0.1 uM) [%] | Ki (11β-hsd-1 enzyme [1]; apparent Ki, 11β-hsd-1 enzyme) [nM] | inhibition at 0.1 µM (11β-hsd-1 enzyme [2]; compound at 0.1 uM) [%] | % inh @ 0.1 uM (11β-hsd-1 enzyme [2]; 0.1 uM) [%]
18 | CCCCc1ccc(-c2ccc(S(=O)(=O)Nc3cccc(C)n3)c(C)c2)cc1 [Example 209] |  |  | 18 | 88 | 
19 | Cc1cccc(NS(=O)(=O)c2ccc(-c3cccc(Cl)c3)cc2C)n1 [Example 163] | 8 | 97 |  |  | 
20 | Cc1cccc(NS(=O)(=O)c2ccc(-c3ccc(F)cc3F)cc2C)n1 [Example 179] | 6.2 | 95 |  |  | 
21 | Cc1cccc(NS(=O)(=O)c2ccc(-c3cccc(O)c3)cc2C)n1 [Example 185] | 46 | 71 |  |  | 
22 | Cc1cccc(NS(=O)(=O)c2ccc(-c3ccc(C#N)cc3)cc2)n1 [Example 33, 4′-Cyano-biphenyl-4-sulfonic acid (6-methyl-pyridin-2-yl)-amide] | 6.4 | 97 |  |  | 
23 | Cc1cccc(NS(=O)(=O)c2ccc(-c3cccc(C(C)C)c3)cc2C)n1 [Example 193] | 39 | 78 |  |  | 
24 | Cc1cccc(NS(=O)(=O)c2ccc(-c3ccc(F)cc3)cc2C)n1 [Example 279] |  |  | 4.5 | 100 | 
25 | N#Cc1ccc(C2CCN(S(=O)(=O)Nc3ccc4ccccc4n3)CC2)cc1 [Example 308] |  |  | < 1 | 95.7 | 
26 | N#Cc1ccc(-c2ccc(S(=O)(=O)Nc3ccc4ccccc4n3)cc2)cc1 [Example 87] | 3.6 | 100 |  |  | 
27 | Cc1cccc(NS(=O)(=O)c2ccc(-c3ccc(C#N)cc3)cc2O)n1 [Example 286, 4′-Cyano-3-hydroxy-biphenyl-4-sulfonic acid (6-methyl-pyridin-2-yl)-amide] |  |  | 6.2 | 100 | 
28 | Cc1cccc(NS(=O)(=O)c2ccc(-c3ccc(Cl)cc3)cc2C)n1 [Example 168] | 2.8 | 96 |  |  | 
29 | N#Cc1ccc(-c2ccc(S(=O)(=O)Nc3ccc4occc4n3)cc2)cc1 [Example 86] | 14.3 | 100 |  |  | 
30 | Cc1cccc(NS(=O)(=O)c2ccc(-c3ccc4c(c3)OCCO4)cc2C)n1 [Example 206] |  |  | 20 | 87 | 
31 | Cc1cccc(NS(=O)(=O)c2ccc(-c3ccc(C#N)cc3)cc2C)n1 [Example 277, 4′-Cyano-3-methyl-biphenyl-4-sulfonic acid (6-methyl-pyridin-2-yl)-amide] |  |  | < 1 | 100 | 
32 | Cc1cccc(NS(=O)(=O)c2ccc(-c3ccc(C(C)C)cc3)cc2C)n1 [Example 190] | 35 | 78 |  |  | 
33 | COc1ccc(-c2ccc(S(=O)(=O)Nc3cccc(C)n3)c(C)c2)cc1OC [Example 182] | 23 | 79 |  |  | 
34 | Cc1cccc(NS(=O)(=O)c2sc3ccc(C#N)cc3c2C)n1 [Example 91] | 2.3 | 100 |  |  | 

Continued, values first:

Row | Ki (11β-hsd-1 enzyme [1]) [nM] | inhibition at 0.1 µM (11β-hsd-1 enzyme [2]; 0.1 uM) [%] | Ki (11β-hsd-1 enzyme [1]; apparent Ki, 11β-hsd-1 enzyme) [nM] | inhibition at 0.1 µM (11β-hsd-1 enzyme [2]; compound at 0.1 uM) [%] | % inh @ 0.1 uM (11β-hsd-1 enzyme [2]; 0.1 uM) [%] | SMILES
35 | < 1 | 100 |  |  |  | Cc1cccc(NS(=O)(=O)c2ccc3c(Cl)cccc3c2)n1 [Example 102]
36 | 9 | 96 |  |  |  | Nc1cccc(NS(=O)(=O)c2ccc(C(F)(F)F)cc2)n1 [Example 39]
37 |  |  | 22.6 | 81.8 |  | Cc1cccc(NS(=O)(=O)c2ccc(-c3ccc(C#N)cc3)nc2)n1 [Example 267, 6-(4-Cyano-phenyl)-pyridine-3-sulfonic acid (6-methyl-pyridin-2-yl)-amide]
38 |  |  | 110 | 78 |  | Cc1cccc(NS(=O)(=O)c2ccc(-c3ccc(C(C)C)cc3)c(C)c2)n1 [Example 233]
39 | 36.2 | 66.8 |  |  |  | COc1cccc(-c2ccc(S(=O)(=O)Nc3cccc(C)n3)cc2)c1 [Example 160]
40 | 8.1 | 98 |  |  |  | Nc1cccc(NS(=O)(=O)c2ccc(-c3ccc(F)cc3)cc2)n1 [Example 43]
41 |  |  | 16 | 90 |  | Cc1ccc(-c2ccc(S(=O)(=O)Nc3cccc(C)n3)cc2C)cc1 [Example 215]
42 | 216 | 78.7 |  |  |  | Cc1cccc(NS(=O)(=O)c2ccc(C(C)C)cc2)n1 [Example 70]
43 | 18.3 | 59.4 |  |  |  | Cc1cc(C)nc(NS(=O)(=O)c2ccc(-c3ccccc3)cc2)c1 [Example 65]
44 |  |  | 2.9 | 100 |  | Cc1cccc(NS(=O)(=O)c2ccc(-c3ccc(C#N)cc3)c(C(F)(F)F)c2)n1 [Example 285, 4′-Cyano-2-trifluoromethyl-biphenyl-4-sulfonic acid (6-methyl-pyridin-2-yl)-amide]
45 |  |  | 10.7 | 94.8 |  | COc1cc(-c2ccc(S(=O)(=O)Nc3cccc(C)n3)cc2)ccc1C#N [Example 270, 4′-Cyano-3′-methoxy-biphenyl-4-sulfonic acid (6-methyl-pyridin-2-yl)-amide]
46 |  |  | 7.6 | 89.3 |  | CCc1cccc(NS(=O)(=O)N2CCc3ccccc3C2)n1 [Example 303]
47 | 34.6 | 66 |  |  |  | CCc1cccc(NS(=O)(=O)c2ccc(C(F)(F)F)cc2)n1 [Example 71]
48 |  |  | 20 | 87.7 |  | Cc1cccc(NS(=O)(=O)c2ccc(-c3ccc(C(F)(F)F)cn3)cc2)n1 [Example 271]
49 |  |  | 5 | 95 |  | Cc1cccc(NS(=O)(=O)c2ccc(-c3ccc(Cl)cc3)c(C)c2)n1 [Example 217]
50 | 1.9 | 100 |  |  |  | N#Cc1ccc(-c2ccc(S(=O)(=O)Nc3cccc(C4CC4)n3)cc2)cc1 [Example 112, 4′-Cyano-biphenyl-4-sulfonic acid (6-cyclopropyl-pyridin-2-yl)-amide]
51 |  |  | 33.4 | 79.3 |  | Cc1cccc(NS(=O)(=O)c2ccc(-c3ccc(F)cc3C)cc2)n1 [Example 253]
52 |  |  | 110 | 81 |  | Cc1cccc(NS(=O)(=O)c2ccc(-c3cccc(C(C)C)c3)c(C)c2)n1 [Example 236]
53 | 42 | 72.3 |  |  |  | CCOC(=O)Cc1cccc(NS(=O)(=O)c2cccc(Cl)c2C)n1 [Example 1, Ethyl [6-(3-Chloro-2-methyl-benzenesulfonylamino)-pyridin-2-yl]-acetate]
54 |  |  | 3.4 | 100 |  | Cc1cccc(NS(=O)(=O)c2ccc(-c3ccc(C#N)cc3)c(F)c2)n1 [Example 284, 4′-Cyano-2-fluoro-biphenyl-4-sulfonic acid (6-methyl-pyridin-2-yl)-amide]
55 | 19.7 | 86.8 |  |  |  | Cc1cccc(NS(=O)(=O)c2ccc(-c3ccc(F)cc3)cc2)n1 [Example 128]
56 | 42.3 | 70 |  |  |  | Cc1cccc(NS(=O)(=O)c2ccc3ccc(Cl)cc3c2)n1 [Example 93]
57 | 169 |  |  |  | 49 | Cc1cccc(NS(=O)(=O)c2cccc(Cl)c2C)n1 [Example 38]
58 | 84 | 45 |  |  |  | Cc1cccc(NS(=O)(=O)c2ccc3ccccc3c2)n1 [Example 37]
59 |  |  | 40 | 70 |  | Cc1cccc(NS(=O)(=O)c2ccc(-c3ccc(F)cc3)nc2)n1 [Example 268]
60 |  |  | 3.5 | 94.4 |  | Cc1cccc(NS(=O)(=O)c2ccc(-c3ccc(C#N)c(Cl)c3)cc2)n1 [Example 274]
61 |  |  | 34.9 | 89.3 |  | COc1ccc(-c2ccc(S(=O)(=O)Nc3cccc(C)n3)cc2)cn1 [Example 256]
